Assay results published in ChEMBL document CHEMBL3232772, “Spiramine derivatives induce apoptosis of Bax(-/-)/Bak(-/-) cell and cancer cells” (Bioorg Med Chem Lett, 2014).
Calls of active or inactive are those of the source. The rule behind the calls is not given here.

Tests used:
MEF [1] = assay: Induction of apoptosis in Bax(-/-)/Bak(-/-) MEF at 10 uM after 24 to 48 hrs; type: functional, cell-based; conditions: Mus musculus
HL-60 = assay: Cytotoxicity against human HL60 cells after 48 hrs by MTT assay; type: functional, cell-based; conditions: HL-60, 48 h
SMMC-7721 = assay: Cytotoxicity against human SMMC7721 cells after 48 hrs by MTT assay; type: functional, cell-based; conditions: SMMC-7721, 48 h
A549 = assay: Cytotoxicity against human A549 cells after 48 hrs by MTT assay; type: functional, cell-based; conditions: A549, 48 h
MCF7 = assay: Cytotoxicity against human MCF7 cells after 48 hrs by MTT assay; type: functional, cell-based; conditions: MCF7, 48 h
SW480 [2] = assay: Cytotoxicity against human SW480 cells after 48 hrs by MTT assay; type: functional, cell-based; conditions: SW480, 48 h
MEF [3] = assay: Induction of apoptosis in Bax(-/-)/Bak(-/-) MEF after 48 hrs; type: functional, cell-based; conditions: Mus musculus
SW480 [4] = assay: Induction of apoptosis in human SW480 cells assessed as late apoptotic cells at 20 uM after 24 hrs using annexin V-FITC and propidium iodide staining by flow cytometry (reference value: 1.0%); type: functional
SW480 [5] = assay: Induction of apoptosis in human SW480 cells assessed as early apoptotic cells at 20 uM after 24 hrs using annexin V-FITC and propidium iodide staining by flow cytometry (reference value: 1.4%); type: functional
SW480 [6] = assay: Induction of apoptosis in human SW480 cells assessed as activation of caspase activity at 20 uM after 24 hrs by CASPACE-FITC staining (reference value: 6.2%); type: functional
MEF [7] = assay: Induction of apoptosis in Bax(-/-)/Bak(-/-) MEF assessed as late apoptotic cells at 20 uM after 24 hrs using annexin V-FITC and propidium iodide staining by flow cytometry (reference value: 3.3%); type: functional, Mus musculus
MEF [8] = assay: Induction of apoptosis in Bax(-/-)/Bak(-/-) MEF assessed as early apoptotic cells at 20 uM after 24 hrs using annexin V-FITC and propidium iodide staining by flow cytometry (reference value: 0.6%); type: functional, Mus musculus
MEF [9] = assay: Induction of apoptosis in Bax(-/-)/Bak(-/-) MEF assessed as activation of caspase activity at 20 uM after 24 hrs by CASPACE-FITC staining (reference value: 12.2%); type: functional, Mus musculus
SW480 [10] = assay: Induction of apoptosis in human SW480 cells assessed as late apoptotic cells at 10 uM after 24 hrs using annexin V-FITC and propidium iodide staining by flow cytometry (reference value: 1.0%); type: functional
SW480 [11] = assay: Induction of apoptosis in human SW480 cells assessed as early apoptotic cells at 10 uM after 24 hrs using annexin V-FITC and propidium iodide staining by flow cytometry (reference value: 1.4%); type: functional
SW480 [12] = assay: Induction of apoptosis in human SW480 cells assessed as activation of caspase activity at 10 uM after 24 hrs by CASPACE-FITC staining (reference value: 6.2%); type: functional
MEF [13] = assay: Induction of apoptosis in Bax(-/-)/Bak(-/-) MEF assessed as late apoptotic cells at 10 uM after 24 hrs using annexin V-FITC and propidium iodide staining by flow cytometry (reference value: 3.3%); type: functional, Mus musculus
MEF [14] = assay: Induction of apoptosis in Bax(-/-)/Bak(-/-) MEF assessed as early apoptotic cells at 10 uM after 24 hrs using annexin V-FITC and propidium iodide staining by flow cytometry (reference value: 0.6%); type: functional, Mus musculus
MEF [15] = assay: Induction of apoptosis in Bax(-/-)/Bak(-/-) MEF assessed as activation of caspase activity at 10 uM after 24 hrs by CASPACE-FITC staining (reference value: 12.2%); type: functional, Mus musculus
[16] = Cytotoxicity against human MCF7/ADR cells after 48 hrs by MTT assay; type: functional, cell-based; conditions: NCI/ADR-RES
NCI/ADR-RES = assay: Resistant factor, ratio of IC50 for human MCF7/ADR cells to IC50 for human MCF7 cells; type: functional

SMILES	Activity (MEF [1])	IC50 (HL-60) [µM]	IC50 (SMMC-7721) [µM]	IC50 (A549) [µM]	IC50 (MCF7) [µM]	IC50 (SW480 [2]) [µM]	IC50 (MEF [3]) [nM]	Activity (SW480 [4]) [%]	Activity (SW480 [5]) [%]	Activity (SW480 [6]) [%]	Activity (MEF [7]) [%]	Activity (MEF [8]) [%]	Activity (MEF [9]) [%]	also measured
C=C1C(=O)[C@]23CC[C@H]1C[C@H]2[C@@]12CCC[C@@](C)(CN(CCO[Si](C)(C)C(C)(C)C)C1)[C@H]2C(=C)C3=O	Active	1.39	2.63	1.55	2.9	2.78	–	–	–	–	–	–	–	–
C=C1C(=O)[C@]23CC[C@H]1C[C@H]2[C@@]12CCC[C@@]4(C)CN(CCO)[C@H]1O[C@@H]3C[C@H]42	Active	19.3	23.6	18.6	10.3	14	–	–	–	–	–	–	–	–
C=C1C(=O)[C@]23CC[C@H]1C[C@H]2[C@@]12CCC[C@@](C)(CN(CCO)C1)[C@H]2C[C@H]3O	Active	7.95	11.2	9.92	16.6	14.4	–	–	–	–	–	–	–	–
C=C1C(=O)[C@]23CC[C@H]1C[C@H]2[C@@]12CCC[C@@]4(C)C(=O)N(CCO)[C@H]1O[C@@H]3C[C@@H]24	Active	18.6	18.4	17.9	13.2	12.4	–	–	–	–	–	–	–	–
C=C1C(=O)[C@]23CC[C@H]1C[C@H]2[C@@]12CCC[C@@](C)(CN(CCO)C1)[C@H]2C(=C)C3=O	Active	6.61	11.5	6.5	3.57	2.81	1810	44.2	13.1	29.8	76.8	28.2	97.1	–
C=C1C(=O)[C@@]23CC[C@@H](C[C@H]2[C@@]24CCC[C@@](C)(CN(CCO)C2)[C@@H]14)C(=C)[C@@H]3O	Active	4.82	1.48	3.04	6.98	9.84	–	–	–	–	–	–	–	–
C=C1C(=O)[C@]23CC[C@H]1C[C@H]2[C@@]12CCC[C@@](C)(C(=O)N4CCO[C@H]41)[C@H]2C[C@H]3O	Active	2.73	2.63	3.09	1.12	2.81	3380	40.1	46.7	60.1	68.3	21.7	93.2	Activity (SW480 [10]): 8.6%; Activity (SW480 [11]): 25.5%; Activity (SW480 [12]): 12.1%; Activity (MEF [13]): 2.1%; Activity (MEF [14]): 8.6%; Activity (MEF [15]): 14.3%; IC50 [16]: 8.8 µM; Ratio IC50 (NCI/ADR-RES): 1.66
C=C1C(=O)[C@]23CC[C@H]1C[C@H]2[C@@]12CCC[C@@]4(C)C(=O)N[C@H]1O[C@@H]3C[C@@H]24	Active	18.6	15.7	19	15.7	14.2	–	–	–	–	–	–	–	IC50 [16]: 28.3 µM; Ratio IC50 (NCI/ADR-RES): 1.4
C=C1C(=O)[C@]23CC[C@H]1C[C@H]2[C@@]12CCC[C@@]4(C)C5OCCN5[C@H]1O[C@@H]3C[C@@H]24 (stereo partly drawn)	Active	1.34	1.04	2.03	0.67	1.97	2240	15.9	16.9	18.2	86.2	1.9	87.8	–
C=C1C(=O)[C@]23CC[C@H]1C[C@H]2[C@@]12CCC[C@@](C)(CN(CCO)C1)[C@H]2CC3=O	Active	14.3	15.2	9.24	15.7	11.8	4520	13.3	10.9	10.9	52.2	11.7	66.6	–
C=C1C(=O)[C@]23CC[C@H]1C[C@H]2[C@@]12CCC[C@@](C)(COC1=O)[C@H]2C[C@H]3O	Active	6.36	3.96	3.22	3.25	3.58	1740	–	–	–	–	–	–	–
COc1cccc2c1C(=O)c1c(O)c3c(c(O)c1C2=O)C[C@@](O)(C(=O)CO)C[C@@H]3O[C@H]1C[C@H](N)[C@H](O)[C@H](C)O1 [DOXORUBICIN]	–	–	–	–	0.077	–	–	–	–	–	–	–	–	IC50 [16]: 68.4 µM; Ratio IC50 (NCI/ADR-RES): 888.75
